Measurements from patent publication US8791266B2, “Thyroid hormone β receptor agonist” (Mitsubishi Tanabe Pharma Corporation, priority 2009, dated 2014).

Key:
[1] = target: T1, Human Thyroid Hormone Receptor β1 (TRβ1) (Homo sapiens, UniProt P10828); assay: Transcription activation test of human thyroid hormone receptor β1 (luciferase reporter in 293T cells); assay type: cell-based; conditions: EC50 of transcription activation on TRβ1, 293T cells, luciferase activity after 24 hr; read-out: TRβ
T1 construct: expressed in transfected cells; host or cells: 293T cells
T1 sequence (P10828 1-461): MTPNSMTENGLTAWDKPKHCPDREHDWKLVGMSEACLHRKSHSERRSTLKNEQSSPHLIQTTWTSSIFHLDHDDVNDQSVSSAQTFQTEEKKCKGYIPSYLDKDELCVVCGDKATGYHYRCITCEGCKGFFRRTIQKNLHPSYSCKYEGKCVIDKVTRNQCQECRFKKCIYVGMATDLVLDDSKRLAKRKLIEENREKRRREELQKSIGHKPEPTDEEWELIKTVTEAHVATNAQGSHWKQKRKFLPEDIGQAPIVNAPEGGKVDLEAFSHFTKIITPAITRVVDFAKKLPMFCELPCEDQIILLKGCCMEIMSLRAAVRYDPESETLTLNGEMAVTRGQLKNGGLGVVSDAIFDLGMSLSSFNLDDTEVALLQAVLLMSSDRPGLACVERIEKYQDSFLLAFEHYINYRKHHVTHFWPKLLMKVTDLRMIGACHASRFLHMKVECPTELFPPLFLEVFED
Excerpt: (§1) Transcription Activation Test of Human Thyroid Hormone Receptors α1 (TRα1) and β1 (TRβ1)
(§2) pcDNA3.1 vector (manufactured by Invitrogen) that expresses TRα1 or β1 cloned from human liver-derived cells, and firefly luciferase expression vector pDR4-LuC (manufactured by Stratagene) having a thyroid hormone response sequence to be a reporter were transfected into 293T cells cultured in Dulbecco's modified Eagle medium (DMEM) containing 10% of activated carbon/dextran-treated fetal bovine serum (FBS) by using Lipofectamine2000 (manufactured by Invitrogen). After 16 hr, the cells were plated again in a 96 well plate, and the medium was exchanged with DMEM containing 0.1% activated carbon/dextran-treated FBS. After 3 more hr, a compound diluted with dimethyl sulfoxide solution was added, and the luciferase activity after 24 hr was measured.
(§3) As a positive control, 3,3′,5-triiodo-L-thyronine (T3), which is a biological ligand, was used. The transcription activation action of the compound on TRα1 and TRβ1 was shown by each EC50 value and the maximum luciferase activity value relative to the maximum luciferase activity value of T3 as 100.

[2] = target: T2, Human Thyroid Hormone Receptor α1 (TRα1) (Homo sapiens, UniProt P10827); assay: Transcription activation test of human thyroid hormone receptor α1 (luciferase reporter in 293T cells); assay type: cell-based; conditions: ratio TRα/TRβ of the transcription activation EC50 values
T2 construct: expressed in transfected cells; host or cells: 293T cells
T2 sequence (P10827 1-410 isoform P10827-2): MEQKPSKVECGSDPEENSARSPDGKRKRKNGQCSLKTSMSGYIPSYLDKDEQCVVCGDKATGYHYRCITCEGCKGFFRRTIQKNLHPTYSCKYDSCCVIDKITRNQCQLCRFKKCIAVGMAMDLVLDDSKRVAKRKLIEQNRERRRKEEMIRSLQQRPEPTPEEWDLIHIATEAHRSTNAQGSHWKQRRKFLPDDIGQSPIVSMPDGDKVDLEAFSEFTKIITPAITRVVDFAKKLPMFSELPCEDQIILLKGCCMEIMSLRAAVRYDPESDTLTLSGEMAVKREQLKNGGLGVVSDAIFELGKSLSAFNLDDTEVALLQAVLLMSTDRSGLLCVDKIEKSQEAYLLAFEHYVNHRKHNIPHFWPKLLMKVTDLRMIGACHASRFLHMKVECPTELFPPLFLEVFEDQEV
Excerpt: as §1, §2, §3

Row | SMILES | EC50 [1] | selectivity (TRα/TRβ) [2]
1 | COc1c(OCc2noc(=O)[nH]2)cc(C)c(Cc2ccc(O)c(C3CCCCC3)n2)c1C [Example 107, 3-({4-[(6-cyclohexyl-5-hydroxypyridin-2-yl)methyl]-2-methoxy-3,5-dimethylphenoxy}methyl)-1,2,4-oxadiazol-5(4H)-one] | 10 nM | C (2>(TRα/TRβ))
2 | Cc1cc(OCc2noc(=O)[nH]2)c(C)c(C)c1Cc1ccc(O)c(C2CCCCC2)n1 [Example 34, 3-({4-[(6-cyclohexyl-5-hydroxypyridin-2-yl)methyl]-2,3,5-trimethylphenoxy}methyl)-1,2,4-oxadiazol-5(4H)-one] | 0.4 nM | B (2<(TRα/TRβ)<5)
3 | Cc1cc(OCc2noc(=O)[nH]2)cc(C)c1Cc1ccc(O)c(C(C)C)n1 [Example 27, 3-({4-[(5-hydroxy-6-isopropylpyridin-2-yl)methyl]-3,5-dimethylphenoxy}methyl)-1,2,4-oxadiazol-5(4H)-one] | 0.3 nM | C (2>(TRα/TRβ))
4 | Cc1cc(OCC(=O)O)c(C)c(C)c1Cc1cc(F)c(O)c(C2CCCCC2)n1 [Example 65, {4-[(6-cyclohexyl-4-fluoro-5-hydroxypyridin-2-yl)methyl]-2,3,5-trimethylphenoxy}acetic acid] | 10 nM | A (5<(TRα/TRβ))
5 | Cc1cc(OC(C)C(=O)O)c(C)c(C)c1Cc1ccc(O)c(C2CCCCC2)n1 (stereo not drawn) [Example 15, 2-{4-[(6-cyclohexyl-5-hydroxypyridin-2-yl)methyl]-2,3,5-trimethylphenoxy}propanoic acid] | 9 nM | B (2<(TRα/TRβ)<5)
6 | Cc1cc(OCC(=O)O)c(C)c(C)c1Cc1ccc(O)c(C2CCCCO2)n1 (stereo not drawn) [Example 8, (4-{[5-hydroxy-6-(tetrahydro-2H-pyran-2-yl)pyridin-2-yl]methyl}-2,3,5-trimethylphenoxy)acetic acid] | 50 nM | A (5<(TRα/TRβ))
7 | O=C(O)COc1cc(Br)c(Cc2ccc(O)c(-c3ccccc3)n2)c(Br)c1F [Example 256, [3,5-dibromo-2-fluoro-4-(5-hydroxy-6-phenyl-pyridin-2-ylmethyl)-phenoxy]acetic acid] | 3 nM | A (5<(TRα/TRβ))
8 | Cc1cc(OCC(=O)O)cc(C)c1Cc1ccc(O)c(C(C)C)n1 [Example 1, {4-[(5-hydroxy-6-isopropylpyridin-2-yl)methyl]-3,5-dimethylphenoxy}acetic acid] | 3 nM | B (2<(TRα/TRβ)<5)
9 | Cc1cc(NC(=O)CC(=O)O)cc(C)c1Cc1ccc(O)c(C(C)C)n1 [Example 21, 3-({4-[(5-hydroxy-6-isopropylpyridin-2-yl)methyl]-3,5-dimethylphenyl}amino)-3-oxopropanoic acid] | 30 nM | B (2<(TRα/TRβ)<5)
10 | Cc1cccc(-c2nc(Cc3c(C)cc(OCc4noc(=O)[nH]4)c(F)c3C)ccc2O)c1F [Example 60, 3-[(2-fluoro-4-{[6-(2-fluoro-3-methylphenyl)-5-hydroxypyridin-2-yl]methyl}-3,5-dimethylphenoxy)methyl]-1,2,4-oxadiazol-5(4H)-one] | 0.6 nM | A (5<(TRα/TRβ))
11 | Cc1cc(OCC(=O)O)c(C)c(C)c1Cc1ccc(O)c(C(=O)N(C)CCc2ccccc2)n1 [Example 80] | 100 nM | B (2<(TRα/TRβ)<5)
12 | Cc1cc(OC(C)(C)C(=O)O)c(C)c(C)c1Cc1ccc(O)c(C2CCCCC2)n1 [Example 17, 2-{4-[(6-cyclohexyl-5-hydroxypyridin-2-yl)methyl]-2,3,5-trimethylphenoxy}-2-methylpropanoic acid] | 20 nM | B (2<(TRα/TRβ)<5)
13 | Cc1cc(NC(=O)CC(=O)O)cc(C)c1Cc1ccc(O)c(C2CCCCC2)n1 [Example 23, 3-({4-[(6-cyclohexyl-5-hydroxypyridin-2-yl)methyl]-3,5-dimethylphenyl}amino)-3-oxopropanoic acid] | 10 nM | A (5<(TRα/TRβ))
14 | Cc1cc(OCC(=O)O)c(C)c(C)c1Cc1ccc(O)c(C2CCCC2)n1 [Example 5, {4-[(6-cyclopentyl-5-hydroxypyridin-2-yl)methyl]-2,3,5-trimethylphenoxy}acetic acid] | 0.5 nM | A (5<(TRα/TRβ))
15 | Cc1cc(NC(=O)CC(=O)O)cc(C)c1Cc1ccc(O)c(-c2ccccc2)n1 [Example 22, 3-({4-[(5-hydroxy-6-phenylpyridin-2-yl)methyl]-3,5-dimethylphenyl}amino)-3-oxopropanoic acid] | 200 nM | A (5<(TRα/TRβ))
16 | Cc1cc(OCC(=O)O)c(F)c(C)c1Cc1ccc(O)c(C2CCCCC2)n1 [Example 12, {4-[(6-cyclohexyl-5-hydroxypyridin-2-yl)methyl]-2-fluoro-3,5-dimethylphenoxy}acetic acid] | 0.7 nM | B (2<(TRα/TRβ)<5)
17 | Cc1cc(C(=O)O)c(C)c(C)c1Cc1ccc(O)c(C2CCCCC2)n1 [Example 42, 4-[(6-cyclohexyl-5-hydroxypyridin-2-yl)methyl]-2,3,5-trimethylbenzoic acid] | 300 nM | B (2<(TRα/TRβ)<5)
18 | Cc1cc(OCc2noc(=O)[nH]2)c(C)c(C)c1Cc1ccc(O)c(C2CCCCO2)n1 (stereo not drawn) [Example 35, 3-[(4-{[5-hydroxy-6-(tetrahydro-2H-pyran-2-yl)pyridin-2-yl]methyl}-2,3,5-trimethylphenoxy)methyl]-1,2,4-oxadiazol-5(4H)-one] | 9 nM | B (2<(TRα/TRβ)<5)
